Assay results: ChEMBL document CHEMBL3046894, “Synthesis and Herbicidal Activity of Pyrimidinyl Salicylic and Thiosalicylic Acids” (J Pestic Sci, 1996)
Active and inactive are the calls of the source. The calls are words filed in the database; no cut-off is given here.

What was measured:
Echinochloa crus-galli [1] = test: Pre-emergence herbicidal activity against Echinochloa crus-galli (barnyard grass) assessed as growth inhibition at 25 g a.i/10 a; assay type: functional, organism-based
Cyperus iria [2] = test: Pre-emergence herbicidal activity against Cyperus iria assessed as growth inhibition at 25 g a.i/10 a; assay type: functional, organism-based
Zea mays [3] = test: Post-emergence phytotoxicity against Zea mays (maize) assessed as mortality at 6.3 g a.i/10 a applied 11 days after germination as foliar spray; assay type: organism-based; settings: in vivo, other, 264 h
Digitaria sanguinalis [4] = test: Pre-emergence herbicidal activity against Digitaria sanguinalis (hairy crabgrass) assessed as growth inhibition at 25 g a.i/10 a; assay type: functional, organism-based
Abutilon theophrasti [5] = test: Post-emergence herbicidal activity against Abutilon theophrasti (velvetleaf) assessed as mortality at 6.3 g a.i/10 a applied 11 days after germination as foliar spray; assay type: functional; settings: 264 h
Gossypium hirsutum [6] = test: Post-emergence phytotoxicity against Gossypium hirsutum (cotton) assessed as mortality at 6.3 g a.i/10 a applied 11 days after germination as foliar spray; assay type: organism-based; settings: in vivo, other, 264 h
Cyperus iria [7] = test: Post-emergence herbicidal activity against Cyperus iria assessed as growth inhibition at 25 g a.i/10 a applied 11 days after germination as foliar spray; assay type: functional, organism-based
Amaranthus retroflexus [8] = test: Pre-emergence herbicidal activity against Amaranthus retroflexus assessed as growth inhibition at 25 g a.i/10 a; assay type: functional, organism-based
Amaranthus retroflexus [9] = test: Post-emergence herbicidal activity against Amaranthus retroflexus assessed as growth inhibition at 25 g a.i/10 a applied 11 days after germination as foliar spray; assay type: functional, organism-based
Abutilon theophrasti [10] = test: Post-emergence herbicidal activity against Abutilon theophrasti (velvetleaf) assessed as mortality at 1.6 g a.i/10 a applied 11 days after germination as foliar spray; assay type: functional; settings: 264 h
Chenopodium album [11] = test: Pre-emergence herbicidal activity against Chenopodium album assessed as growth inhibition at 25 g a.i/10 a; assay type: functional, organism-based
Gossypium hirsutum [12] = test: Post-emergence phytotoxicity against Gossypium hirsutum (cotton) assessed as mortality at 1.6 g a.i/10 a applied 11 days after germination as foliar spray; assay type: organism-based; settings: in vivo, other, 264 h
Persicaria nodosa [13] = test: Pre-emergence herbicidal activity against Persicaria nodosa assessed as growth inhibition at 25 g a.i/10 a; assay type: functional, organism-based
Zea mays [14] = test: Post-emergence phytotoxicity against Zea mays (maize) assessed as mortality at 1.6 g a.i/10 a applied 11 days after germination as foliar spray; assay type: organism-based; settings: in vivo, other, 264 h
Persicaria nodosa [15] = test: Post-emergence herbicidal activity against Persicaria nodosa assessed as growth inhibition at 25 g a.i/10 a applied 11 days after germination as foliar spray; assay type: functional, organism-based
Digitaria sanguinalis [16] = test: Post-emergence herbicidal activity against Digitaria sanguinalis (hairy crabgrass) assessed as growth inhibition at 25 g a.i/10 a applied 11 days after germination as foliar spray; assay type: functional, organism-based
[17] = (§1) Post-emergence phytotoxicity against Glycine max (soybean) assessed as mortality at 1.6 g a.i/10 a applied 11 days after germination as foliar spray; assay type: organism-based; settings: in vivo, 1.6 g a.i/10 a
Chenopodium album [18] = test: Post-emergence herbicidal activity against Chenopodium album assessed as growth inhibition at 25 g a.i/10 a applied 11 days after germination as foliar spray; assay type: functional, organism-based
Echinochloa crus-galli [19] = test: Post-emergence herbicidal activity against Echinochloa crus-galli (barnyard grass) assessed as growth inhibition at 25 g a.i/10 a applied 11 days after germination as foliar spray; assay type: functional, organism-based
[20] = (§2) Pre-emergence phytotoxicity against Gossypium hirsutum (cotton) assessed as mortality at 6.3 g a.i/10 a; assay type: organism-based; settings: in vivo, 6.3 g a.i/10 a, read-out: Activity
Glycine max [21] = test: Post-emergence phytotoxicity against Glycine max (soybean) assessed as mortality at 6.3 g a.i/10 a applied 11 days after germination as foliar spray; assay type: organism-based; settings: in vivo, other, 264 h
Xanthium strumarium [22] = test: Pre-emergence herbicidal activity against Xanthium strumarium (cocklebur) assessed as mortality at 6.3 g a.i/10 a; assay type: functional
Glycine max [23] = test: Pre-emergence phytotoxicity against Glycine max (soybean) assessed as mortality at 1.6 g a.i/10 a; assay type: organism-based; settings: in vivo, other
Gossypium hirsutum [24] = test: Pre-emergence phytotoxicity against Gossypium hirsutum (cotton) assessed as mortality at 1.6 g a.i/10 a; assay type: organism-based; settings: in vivo, other
Glycine max [25] = test: Pre-emergence phytotoxicity against Glycine max (soybean) assessed as mortality at 6.3 g a.i/10 a; assay type: organism-based; settings: in vivo, other
Zea mays [26] = test: Pre-emergence phytotoxicity against Zea mays (maize) assessed as mortality at 1.6 g a.i/10 a; assay type: organism-based; settings: in vivo, other
Glycine max [27] = test: as §1; assay type: organism-based; settings: in vivo, other, 264 h
Zea mays [28] = test: Pre-emergence phytotoxicity against Zea mays (maize) assessed as mortality at 6.3 g a.i/10 a; assay type: organism-based; settings: in vivo, other
Xanthium strumarium [29] = test: Pre-emergence herbicidal activity against Xanthium strumarium (cocklebur) assessed as mortality at 1.6 g a.i/10 a; assay type: functional
Gossypium hirsutum [30] = test: as §2; assay type: organism-based; settings: in vivo, other
Ipomoea lacunosa = test: Pre-emergence herbicidal activity against Ipomoea lacunosa assessed as mortality at 1.6 g a.i/10 a; assay type: functional; settings: Ipomoea lacunosa, pre-emergence

Row | SMILES | growth inhibition (GI) (Echinochloa crus-galli [1]) | growth inhibition (GI) (Cyperus iria [2]) | growth inhibition (GI) (Digitaria sanguinalis [4]) | growth inhibition (GI) (Cyperus iria [7]) | growth inhibition (GI) (Amaranthus retroflexus [8]) | growth inhibition (GI) (Amaranthus retroflexus [9]) | growth inhibition (GI) (Chenopodium album [11]) | growth inhibition (GI) (Persicaria nodosa [13]) | growth inhibition (GI) (Persicaria nodosa [15]) | growth inhibition (GI) (Digitaria sanguinalis [16]) | growth inhibition (GI) (Chenopodium album [18]) | growth inhibition (GI) (Echinochloa crus-galli [19]) | other results
1 | COc1cc(OC)nc(Oc2cccc(SC)c2C(=O)O)n1 | inactive | inactive | inactive | Active | Active | Active | inactive | Active | Active | Active | Active | Active | Activity (Zea mays [3]): Toxic; mortality at 63 g/ha (Abutilon theophrasti [5]): > 90%; Activity (Gossypium hirsutum [6]): Toxic; mortality at 16 g/ha (Abutilon theophrasti [10]): > 90%; Activity (Gossypium hirsutum [12]): Toxic; Activity (Zea mays [14]): Toxic; mortality at 264 h [17]: > 90%
2 | COc1cc(OC)nc(Oc2cccc(C(C)=O)c2C(=O)O)n1 | Active | Active | Active | Active | Active | Active | Active | Active | Active | Active | Active | Active | –
3 | COc1ccc(Oc2nc(OC)cc(OC)n2)c(C(=O)O)c1 | Active | Active | Active | Active | Active | Active | Active | Active | Active | Active | inactive | Active | –
4 | COc1cc(OC)nc(Sc2cccc([N+](=O)[O-])c2C(=O)O)n1 | – | – | – | – | – | – | – | – | – | – | – | – | mortality [20]: < 50%; Activity (Zea mays [3]): Non-toxic; Activity (Glycine max [21]): Toxic; Activity (Gossypium hirsutum [6]): Non-toxic; Activity (Xanthium strumarium [22]): <50%; Activity (Glycine max [23]): Non-toxic; Activity (Gossypium hirsutum [24]): < 50%; Activity (Glycine max [25]): Toxic; Activity (Gossypium hirsutum [12]): Non-toxic; Activity (Zea mays [26]): Non-toxic; Activity (Zea mays [14]): Non-toxic; Activity (Glycine max [27]): Toxic; Activity (Zea mays [28]): Toxic; Activity (Xanthium strumarium [29]): <50%
5 | COc1cc(OC)nc(Oc2cccc(OC(F)F)c2C(=O)O)n1 | Active | Active | Active | Active | Active | Active | Active | Active | Active | Active | Active | Active | Activity (Gossypium hirsutum [30]): Non-toxic; Activity (Zea mays [3]): Toxic; mortality at 16 g/ha (Ipomoea lacunosa): < 5%; mortality at 63 g/ha (Abutilon theophrasti [5]): > 90%; Activity (Gossypium hirsutum [6]): Toxic; Activity (Glycine max [23]): Toxic; Activity (Gossypium hirsutum [24]): Non-toxic; mortality at 16 g/ha (Abutilon theophrasti [10]): > 90%; Activity (Glycine max [25]): Toxic; Activity (Gossypium hirsutum [12]): Toxic; Activity (Zea mays [26]): Non-toxic; Activity (Zea mays [14]): Toxic; mortality at 264 h [17]: > 90%; Activity (Zea mays [28]): Toxic; mortality at 16 g/ha (Xanthium strumarium [29]; Xanthium strumarium, pre-emergence): < 5%
6 | CCCc1cccc(Oc2nc(OC)cc(OC)n2)c1C(=O)O | Active | Active | Active | Active | Active | Active | Active | Active | Active | Active | Active | Active | –
7 | COc1cc(OC)nc(Oc2ccc(C)cc2C(=O)O)n1 | inactive | Active | inactive | inactive | Active | Active | Active | inactive | Active | inactive | inactive | Active | –
8 | COc1cc(OC)nc(Oc2cccc(C(=O)c3ccccc3)c2C(=O)O)n1 | inactive | Active | inactive | Active | Active | Active | Active | inactive | Active | inactive | Active | inactive | –
9 | COc1cc(OC)nc(Oc2cccc(-c3ccccc3)c2C(=O)O)n1 | Active | Active | Active | Active | Active | Active | Active | Active | Active | Active | Active | Active | –
10 | COc1cc(OC)nc(Oc2ccc(C(F)(F)F)cc2C(=O)O)n1 | inactive | inactive | inactive | inactive | inactive | Active | inactive | inactive | inactive | inactive | inactive | inactive | –
11 | COc1cc(OC)nc(Oc2c(F)cccc2C(=O)O)n1 | Active | Active | Active | Active | Active | Active | Active | Active | Active | inactive | Active | Active | –
12 | COc1cc(OC)nc(Oc2ccc(Br)cc2C(=O)O)n1 | inactive | inactive | inactive | inactive | inactive | inactive | inactive | inactive | inactive | inactive | inactive | inactive | –
13 | COc1cc(OC)nc([S+]([O-])c2cccc(Cl)c2C(=O)O)n1 (stereo not given) | inactive | Active | Active | Active | Active | Active | Active | inactive | Active | inactive | Active | Active | –
